For six molecules, IC50 results are on record in ChEMBL document CHEMBL3352740, “Pyrrolopyrimidine Analogues as MKNK Inhibitors” (ACS Med Chem Lett, 2015).

Molecules are shown by their SMILES.

The target in the assay is MAP kinase-interacting serine/threonine-protein kinase 1 (Homo sapiens, UniProt Q9BUB5). Description: Inhibition of human full-length MKNK1 using biotin-Ahx-IKKRKLTRRKSLKG substrate by TR-FRET-based high ATP assay. Background: Time-resolved FRET reads energy transfer from a long-lived donor to a nearby acceptor.
Sequence of MAP kinase-interacting serine/threonine-protein kinase 1 (Q9BUB5 whole entry): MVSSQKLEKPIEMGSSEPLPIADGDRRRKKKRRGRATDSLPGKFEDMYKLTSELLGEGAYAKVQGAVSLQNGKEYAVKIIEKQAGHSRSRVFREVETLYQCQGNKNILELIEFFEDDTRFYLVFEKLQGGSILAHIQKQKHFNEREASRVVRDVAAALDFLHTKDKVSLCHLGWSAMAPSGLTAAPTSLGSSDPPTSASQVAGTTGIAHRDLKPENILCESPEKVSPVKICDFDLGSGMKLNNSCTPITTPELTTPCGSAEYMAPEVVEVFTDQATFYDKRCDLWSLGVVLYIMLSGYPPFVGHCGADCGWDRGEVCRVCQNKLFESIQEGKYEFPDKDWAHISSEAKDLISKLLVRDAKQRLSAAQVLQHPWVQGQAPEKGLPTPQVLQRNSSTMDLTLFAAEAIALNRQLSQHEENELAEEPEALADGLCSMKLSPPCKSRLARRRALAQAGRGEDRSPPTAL
The IC50 is the concentration needed to halve the response being measured. The molecule `COc1cc(Cl)c(Cl)cc1Nc1ncnc2[nH]c3c(c12)CC(C(=O)NC1CC1)CC3` (stereo unspecified) displayed an IC50 of 6 nM.

As to `CC(C)Oc1cc2[nH]ncc2cc1Nc1ncnc2[nH]c3c(c12)CCCC3`, inhibition was half-maximal at 5 nM (IC50).

Consider `CCNC(=O)C1CCc2[nH]c3ncnc(Nc4cc5cn[nH]c5cc4OC)c3c2C1` (stereo unspecified), for which the IC50 came to 6 nM.

The molecule `COc1cc2[nH]ncc2cc1Nc1ncnc2[nH]c3c(c12)CC(C(=O)NCc1ccccc1)CC3` (stereo unspecified) came in with an IC50 of 1 nM.

The molecule `O=C1OCCOc2cc(F)ccc2Nc2ncnc3[nH]c4c(c23)CC1CC4` (stereo unspecified) had an IC50 of 3540 nM.

The molecule `CC(C)Oc1cc2[nH]ncc2cc1Nc1ncnc2[nH]c3c(c12)CC(C(=O)NCCCS(C)(=O)=O)CC3` (stereo unspecified) gave an IC50 of 1 nM.
